The source made the active and inactive calls.
What was measured:
[1] = growth suppression of beta-catenin-knockout colon cells, dose response, cell-based, HCT116, human colon tumor (AID 1045); assay type: functional;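 further: HCT116 colon tumor cells with beta catenin knocked out; cells exposed to compound for 60 hours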
[2] = target: T1, Replicative DNA helicase DnaB (Mycobacterium tuberculosis, UniProt P9WMR3); assay: DnaB intein splicing inhibitors, dose response, biochemical, cell-free fluorescence (AID 449749); assay type: functional
T1 sequence (P9WMR3 whole entry): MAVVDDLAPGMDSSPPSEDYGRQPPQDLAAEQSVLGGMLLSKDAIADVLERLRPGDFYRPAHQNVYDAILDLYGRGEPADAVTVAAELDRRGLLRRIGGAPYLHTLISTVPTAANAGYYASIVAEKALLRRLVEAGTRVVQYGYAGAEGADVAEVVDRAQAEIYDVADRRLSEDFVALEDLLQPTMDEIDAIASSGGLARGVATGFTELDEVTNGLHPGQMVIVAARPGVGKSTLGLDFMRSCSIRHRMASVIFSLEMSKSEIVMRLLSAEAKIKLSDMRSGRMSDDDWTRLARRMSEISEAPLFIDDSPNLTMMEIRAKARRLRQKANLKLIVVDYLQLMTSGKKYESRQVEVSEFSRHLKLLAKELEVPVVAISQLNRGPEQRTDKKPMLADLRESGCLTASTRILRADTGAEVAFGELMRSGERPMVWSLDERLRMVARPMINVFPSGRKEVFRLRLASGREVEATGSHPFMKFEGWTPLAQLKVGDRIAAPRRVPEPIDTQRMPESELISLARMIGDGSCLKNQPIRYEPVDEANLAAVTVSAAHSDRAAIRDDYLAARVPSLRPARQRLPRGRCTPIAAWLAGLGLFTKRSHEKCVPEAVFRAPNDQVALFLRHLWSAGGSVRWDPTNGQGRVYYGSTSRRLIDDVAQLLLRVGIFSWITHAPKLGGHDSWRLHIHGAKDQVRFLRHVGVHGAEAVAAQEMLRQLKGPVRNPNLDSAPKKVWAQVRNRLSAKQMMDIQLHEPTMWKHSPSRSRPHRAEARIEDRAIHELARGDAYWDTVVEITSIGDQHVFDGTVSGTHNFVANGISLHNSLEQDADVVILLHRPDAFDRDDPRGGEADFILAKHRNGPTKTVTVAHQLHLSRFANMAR

[3] = growth suppression of PTEN-null colon cells, dose response, cell-based, HCT116 PTEN knockout (AID 1047); assay type: functional;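 further: HCT116 colon tumor cells with PTEN knocked out; cells exposed to compound for 60 hours before readout; potency for loss of cell viability measured by luminescence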
Protein RecA = target: T2, Protein RecA (Mycobacterium tuberculosis, UniProt P9WHJ3); assay: Fluorescence Cell-Free Homogeneous Dose Retest to Identify Inhibitors of RecA-Intein Splicing Activity. [Related pubchem assays (depositor defined):AID2097, AID2223, AID489010, AID492950]; assay type: functional
T2 sequence (P9WHJ3 whole entry): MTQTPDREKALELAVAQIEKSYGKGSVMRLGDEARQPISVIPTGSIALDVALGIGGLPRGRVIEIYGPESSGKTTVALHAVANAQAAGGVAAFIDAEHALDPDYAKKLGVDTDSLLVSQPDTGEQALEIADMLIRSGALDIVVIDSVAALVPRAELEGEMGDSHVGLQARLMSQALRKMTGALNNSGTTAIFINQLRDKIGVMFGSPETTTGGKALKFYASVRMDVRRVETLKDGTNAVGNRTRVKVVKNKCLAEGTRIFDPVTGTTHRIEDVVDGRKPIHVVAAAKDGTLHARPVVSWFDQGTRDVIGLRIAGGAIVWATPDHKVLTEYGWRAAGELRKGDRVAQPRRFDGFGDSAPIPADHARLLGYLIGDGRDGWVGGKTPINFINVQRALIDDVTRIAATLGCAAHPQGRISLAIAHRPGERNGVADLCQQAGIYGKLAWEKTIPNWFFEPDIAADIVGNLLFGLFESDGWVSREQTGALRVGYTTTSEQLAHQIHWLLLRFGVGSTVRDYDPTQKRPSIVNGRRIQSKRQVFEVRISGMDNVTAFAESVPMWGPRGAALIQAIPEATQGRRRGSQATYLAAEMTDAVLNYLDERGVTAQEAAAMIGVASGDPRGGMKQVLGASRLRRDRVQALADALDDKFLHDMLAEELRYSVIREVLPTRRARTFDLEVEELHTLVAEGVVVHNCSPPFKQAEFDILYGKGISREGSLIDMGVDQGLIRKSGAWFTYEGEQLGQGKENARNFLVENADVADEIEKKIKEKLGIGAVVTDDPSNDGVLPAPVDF

[4] = P. falciparum Dd2 growth inhibitors, dose response, SYBR Green, cherry-picked samples (AID 1159567); assay type: functional, cell-based
[5] = target: T3, Zinc finger protein mex-5 (Caenorhabditis elegans, UniProt Q9XUB2); assay: MEX-5/TCR-2 RNA interaction inhibitors, dose response, biochemical, C. elegans, fluorescence polarization (AID 1960)
T3 sequence (Q9XUB2 whole entry): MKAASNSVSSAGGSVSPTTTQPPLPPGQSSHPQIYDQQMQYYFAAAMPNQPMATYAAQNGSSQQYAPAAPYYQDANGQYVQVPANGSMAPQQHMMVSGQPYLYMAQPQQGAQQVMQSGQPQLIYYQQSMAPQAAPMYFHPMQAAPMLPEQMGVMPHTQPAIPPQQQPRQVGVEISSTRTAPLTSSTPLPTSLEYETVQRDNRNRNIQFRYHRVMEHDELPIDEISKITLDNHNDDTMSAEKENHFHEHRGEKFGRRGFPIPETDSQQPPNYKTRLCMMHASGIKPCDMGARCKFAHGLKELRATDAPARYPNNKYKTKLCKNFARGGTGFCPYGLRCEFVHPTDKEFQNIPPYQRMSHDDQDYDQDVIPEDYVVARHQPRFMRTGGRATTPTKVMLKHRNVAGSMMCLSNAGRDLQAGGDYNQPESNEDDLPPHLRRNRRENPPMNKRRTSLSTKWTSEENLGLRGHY

[6] = target: T4, RNA-binding protein pos-1 (Caenorhabditis elegans, UniProt G5EF15); assay: inhibitors of POS-1/mex-3 RNA binding, dose response, biochemical, fluorescence polarization (AID 1964);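 further: purified POS-1 fused to maltose binding protein made in E. coli; potency of compounds blocking POS-1 binding to fluorescent RNA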
T4 sequence (G5EF15 whole entry): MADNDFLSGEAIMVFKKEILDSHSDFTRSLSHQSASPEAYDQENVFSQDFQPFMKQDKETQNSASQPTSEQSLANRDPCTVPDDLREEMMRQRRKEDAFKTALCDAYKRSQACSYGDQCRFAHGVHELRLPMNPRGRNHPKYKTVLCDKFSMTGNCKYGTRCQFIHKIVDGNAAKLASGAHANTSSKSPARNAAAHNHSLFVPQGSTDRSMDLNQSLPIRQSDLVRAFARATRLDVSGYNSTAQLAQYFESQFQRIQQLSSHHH

[7] = inhibitors of intracellular T. cruzi replication, confirmation, NIH3T3 host cells, beta-gal luminescence (AID 2044); assay type: functional, cell-based;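 further: intracellular parasites grown in NIH/3T3 mouse fibroblasts as host cells; luminescent beta-galactosidase reporter signal from transgenic T. cruzi replicating inside host cells; inhibitors lower the luminescence signal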
[8] = cytotoxicity toward NIH3T3 fibroblasts, dose response, counter-screen, cell-based, ATP luminescence, mouse fibroblasts (AID 2010); assay type: functional;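 further: cells exposed to compound for about 90 hours before reading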
[9] = HEp-2 cell cytotoxicity, dose response, cytotoxicity control for RSV inhibitor project, HTS (AID 2410); assay type: functional; conditions: human respiratory syncytial virus
Streptococcus = assay: Group A Streptococcus viability loss, dose response, counter-screen for streptokinase expression inhibitor project, luminescence, BacTiterGlo (AID 1915); assay type: functional, organism-based;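 further: potency for reduction of bacterial viability or growth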
[10] = system: Streptococcus sp. 'group A'; assay: growth inhibition of control SK(-) GAS strain, dose response, counter-screen for streptokinase expression inhibitor project, luminescence, kanamycin, BacTiterGlo, confirmation (AID 1900); assay type: functional, organism-based
[11] = Luminescence Cell-Based Dose Retest to Confirm Inhibitors of Cancer Stem Cells. [Related pubchem assays (depositor defined):AID2717, AID2721]; assay type: functional; conditions: Homo sapiens
[12] = target: Heat shock protein HSP 90-alpha (Homo sapiens, UniProt P07900); assay type: functional, organism-based
Streptokinase A = target: T5, Streptokinase A (Streptococcus pyogenes serotype M1, UniProt P10520); assay: S. pyogenes streptokinase expression inhibitors, potency, dose response, plasminogen activation absorbance, OD405 (AID 1914); assay type: functional, Streptococcus pyogenes M1 GAS;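 further: secreted streptokinase activity via plasminogen activation per viability signal from cell pellet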
T5 sequence (P10520 whole entry): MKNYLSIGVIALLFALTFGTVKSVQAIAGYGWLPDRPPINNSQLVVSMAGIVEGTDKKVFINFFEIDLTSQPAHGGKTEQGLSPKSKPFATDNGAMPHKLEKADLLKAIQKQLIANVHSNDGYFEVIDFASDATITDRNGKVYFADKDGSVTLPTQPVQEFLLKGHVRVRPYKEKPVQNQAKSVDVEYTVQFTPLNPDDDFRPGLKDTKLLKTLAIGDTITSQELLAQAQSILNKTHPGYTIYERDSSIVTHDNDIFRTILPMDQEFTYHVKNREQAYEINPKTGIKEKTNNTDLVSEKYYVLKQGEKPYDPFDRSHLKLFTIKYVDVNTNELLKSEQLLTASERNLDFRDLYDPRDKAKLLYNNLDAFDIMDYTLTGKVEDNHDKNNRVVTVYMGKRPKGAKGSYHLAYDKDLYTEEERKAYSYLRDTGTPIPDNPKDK

Cytochrome P450 2C9 = Cytochrome P450 2C9 (Homo sapiens, UniProt P11712)
Cytochrome P450 2C9, sequence (P11712 whole entry): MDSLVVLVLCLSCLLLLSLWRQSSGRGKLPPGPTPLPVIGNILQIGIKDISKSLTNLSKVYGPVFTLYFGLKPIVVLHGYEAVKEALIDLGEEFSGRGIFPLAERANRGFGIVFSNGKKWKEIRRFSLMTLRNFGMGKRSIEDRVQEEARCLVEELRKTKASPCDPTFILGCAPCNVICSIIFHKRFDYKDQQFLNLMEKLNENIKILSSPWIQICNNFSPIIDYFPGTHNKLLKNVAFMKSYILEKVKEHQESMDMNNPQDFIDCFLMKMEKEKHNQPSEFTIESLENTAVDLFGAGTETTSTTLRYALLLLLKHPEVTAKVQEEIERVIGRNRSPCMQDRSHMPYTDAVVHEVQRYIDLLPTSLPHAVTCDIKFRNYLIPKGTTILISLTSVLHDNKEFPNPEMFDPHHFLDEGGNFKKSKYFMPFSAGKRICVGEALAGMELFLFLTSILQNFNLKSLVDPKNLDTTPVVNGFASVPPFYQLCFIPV

## O=C(c1c[nH]c(C(=O)C(Cl)(Cl)Cl)c1)c1ccccc1Cl
[1]
  EC50: 24.9 µM (active)
[2]
  AC50: 7.85 µM (active)
[3]
  EC50: 26.5 µM (active)
Protein RecA
  EC50: 6.27 µM (active)

## C[C@H](CO)N1C[C@H](C)[C@H](CN(C)S(=O)(=O)c2cccs2)Oc2ccc(NC(=O)Cc3cn(C)c4ccccc34)cc2C1=O
[4]
  AC50: 5.02 µM (active)

## COc1ccc(S(=O)(=O)C(C#N)c2nc3ccccc3nc2N2CCC(C)CC2)cc1 (centres undefined)
[5]
  EC50: 8.74 µM (active)
[6]
  EC50: 6.4 µM (active)

## Cc1cccn2c(=O)c3cc(C(=O)NC4CCCCC4)c(=N)n(Cc4ccccc4)c3nc12
[5]
  EC50: 8.47 µM (active)
[6]
  EC50: 25.9 µM (active)
[7]
  EC50: 1.63 µM (active)
[8]
  EC50: > 60 µM (not active)

## COc1ccc(/N=C/c2cc3c(cc2O)OC(N)=C(C#N)C3c2ccccc2)cc1 (centres undefined)
[5]
  EC50: > 300 µM (not active)
[6]
  EC50: > 300 µM (not active)
[9]
  CC50: 8.02 µM (active)

## N#C/C(=C/c1ccc(CNS(=O)(=O)c2ccccc2)o1)C(=O)NCc1ccccc1
[5]
  EC50: > 300 µM (not active)
[6]
  EC50: > 300 µM (not active)

## CC(C)(C)c1cc(NCc2ccccn2)n2ncc(-c3ccccc3)c2n1
Streptococcus
  EC50: 13.8 µM (active)
[10]
  EC50: 0.722 µM (active)
[11]
  AC50: 6.82 µM (active)
[12]
  AC50: 1.63 µM (active)
Streptokinase A
  EC50: 30 µM (active)

## COc1cc(/C=N/O)cc(Br)c1OCc1cccc(Cl)c1
Cytochrome P450 2C9
  AC50: inconclusive
[11]
  AC50: 5.56 µM (active)
[12]
  AC50: 7.99 µM (active)

Source: ChEMBL document CHEMBL1201862, “PubChem BioAssay data set” (2004)
